We go through ten molecules from patent US10138384B2, “Ophthalmic and contact lens solutions using bicine” (priority 2000, dated 2018).

Structures are written as SMILES. Counter-ions that a name gives are not always drawn.

Assay [1] in a line: Reduced preservative binding to contact lenses (radio-labeled C14-PHMB, gamma counter). As to conditions: 1 percent w/v in phosphate buffer, 12 hours at 37 degrees C; for Preservative (C14-PHMB) binding, Average: average of lens A and B. An excerpt:
Results were reported in ug/lens. […] The control was phosphate buffer and sodium chloride.

The test system of assay [2] is C. albicans. The assay is described as follows: In vitro microbicidal activity, 0.2% phosphate buffer with PHMB (Example 4). In kind it is cell-based. As to conditions: pH 7.2.
The test system of another assay is radio-labeled lysozyme. As to conditions: 1 percent w/v in phosphate buffer, 12 hours at 37 degrees Celsius. As for the experimental part: Contact lenses were soaked and heated in test solutions to which a radio-labeled lysozyme was present in a known amount for a period of 12 hours at 37 degrees Celsius. The lenses were rinsed with distilled water in order to remove residual solution. The lenses were then assayed for protein deposition using a Beckman BioGamma I counter. Results were reported in ug/lens.
Choline chloride was a 1 percent w/v solution. The matrix control was phosphate buffer and sodium chloride.

For the next assay, the system named is lysozyme. The assay is described as follows: Protein deposition inhibition on contact lenses (lysozyme, BCA method). The conditions noted are these: lenses soaked overnight in test solution (additives 1 percent w/v in phosphate buffer), then lysozyme 37 degrees C for 12 hours. As for the experimental part:
Contact lenses were soaked test solutions overnight. Afterwards, lysozyme was added to the tubes and warmed to 37 degrees C. for 12 hours. […] The lenses were assayed for protein deposition by the BCA method and detected on an HP PDA Spectrophotometer. Results were reported in ug/lens. […] The control was phosphate buffer and sodium chloride.

Assay [3] concerns C. albicans. The assay is described as follows: In vitro microbicidal activity, 0.1% phosphate buffer with PHMB and hydrogen peroxide (Example 3B). In kind it is cell-based. The conditions noted are these: additive 1%, PHMB 0.0001%, hydrogen peroxide 0.0060%; for C albicans log reduction: pH 7.0, 4 hours at room temperature; for Improvement (log reduction versus buffer control): pH 7.0, 4 hours, buffer control 0.41. How it is done:
The solutions were made isotonic with sodium chloride and preserved with polyhexamethylene biquanide at 0.0001% and hydrogen peroxide at 0.0060%. Dequest […] was added as a stabilizer. The pH was adjusted to 7.0 with either 1 N sodium hydroxide. […] Subsequently, an aliquot of each solution was serial diluted onto agar plates and incubated for 48 hours at elevated temperatures. At the conclusion of the incubation period the plates are examined for the development of colonies. The log reduction was determined based on a comparison to the inoculum control. The following table provides the results of the in vitro studies.

Setting [4] is: additive 0.5%, 0.2% phosphate buffer, PHMB 0.0001%, 4 hours at room temperature.
[5] abbreviates: additive 0.5%, 0.2% phosphate buffer, PHMB 0.0001%, 4 hours, buffer control 0.99.

`C[N+](C)(C)CC(O)CC(=O)[O-]` (centres unmarked) [carnitine, Carnitine]: in assay [1], the “Preservative (C14-PHMB) binding, Average” value stood at 11 ug/lens; the “Preservative (C14-PHMB) binding, Lens A” value stood at 9 ug/lens; the “Preservative (C14-PHMB) binding, Lens B” value worked out at 13 ug/lens. Moreover, the “C albicans log reduction” value with C. albicans [2] (setting [4]) was 1.28 log. In the assay on C. albicans [2] (setting [5]), the “Improvement (log reduction versus buffer control)” value is given as 0.29.

For the molecule `O=C(O)CNC(CO)(CO)CO` [tricine, N-tris(hydroxymethyl)methyl glycine], the “C albicans log reduction” value in the assay on C. albicans [2] (setting [4]) was determined as 1.33 log. The “Improvement (log reduction versus buffer control)” value in the assay with C. albicans [2] (setting [5]) came to 0.34.

Take `C[N+](C)(C)CCO.[Cl-]` [Choline Chloride]: the “Protein deposition, Average” value in the assay with radio-labeled lysozyme (average of lens A and B) was determined as 12 ug/lens. The “Protein deposition, LensA” value in the assay on radio-labeled lysozyme (lens A) worked out at 14 ug/lens. Further, the “Protein deposition, LensB” value in the assay with radio-labeled lysozyme (lens B) amounted to 9 ug/lens. Besides, in assay [1], the “Preservative (C14-PHMB) binding, Average” value stood at 14.5 ug/lens; the “Preservative (C14-PHMB) binding, Lens A” value stood at 18 ug/lens; the “Preservative (C14-PHMB) binding, Lens B” value amounted to 11 ug/lens. In the assay with lysozyme, the “ug lysozyme per lens” value is listed as 4.1 ug/lens.

Turning to `CN1CC(=O)NC1=N` [creatinine, Creatinine], in the assay on C. albicans [3], the “C albicans log reduction” value was 1.42 log and the “Improvement (log reduction versus buffer control)” value is listed as 1.01.

For the molecule `CN(CC(=O)O)C(=N)N` [creatine, Creatine], the “C albicans log reduction” value in the assay on C. albicans [2] (setting [4]) worked out at 1.72 log. Also, the “Improvement (log reduction versus buffer control)” value with C. albicans [2] (setting [5]) is on record as 0.73.

With `C[N+](C)(C)CCO` [choline, Choline], the “C albicans log reduction” value in the assay with C. albicans [2] (setting [4]) came to 2.24 log. The “Improvement (log reduction versus buffer control)” value with C. albicans [2] (setting [5]) is 1.25.

Turning to `OCCN(CCO)C(CO)(CO)CO` [bis-tris, Bis-(2-hydroxyethyl)imino-tns (hydroxymethyl) methane], in the assay on C. albicans [2], the “C albicans log reduction” value stood at 1.21 log and the “Improvement (log reduction versus buffer control)” value is reported as 0.22.

With `C[N+](C)(C)CC(=O)O` [betaine HCI, Betaine HCl], in assay [1], the “Preservative (C14-PHMB) binding, Average” value is 7 ug/lens; the “Preservative (C14-PHMB) binding, Lens A” value is recorded as 6 ug/lens; the “Preservative (C14-PHMB) binding, Lens B” value stood at 8 ug/lens. Also, the “ug lysozyme per lens” value with lysozyme is 2.44 ug/lens. In the assay on C. albicans [2] (setting [4]), the “C albicans log reduction” value amounted to 1.37 log. For the same molecule, in the assay with C. albicans [2] (setting [5]), the “Improvement (log reduction versus buffer control)” value worked out at 0.38.

`O=C(O)CN(CCO)CCO` [bicine, N,N-Bis(2-hydroxyethyl)-glycline]: in the assay on C. albicans [3], the “C albicans log reduction” value was 0.75 log and the “Improvement (log reduction versus buffer control)” value amounted to 0.34.

For `CCN(CC)CC` [triethylamine, Triethylamine], the “C albicans log reduction” value in the assay with C. albicans [2] (setting [4]) is listed as 1.64 log. Also, the “Improvement (log reduction versus buffer control)” value in the assay on C. albicans [2] (setting [5]) came out at 0.65.
